For assay [1], the target named is Sodium- and chloride-dependent GABA transporter 1 (Mus musculus, UniProt P31648). In words: Inhibition of mouse GAT1 transfected in HEK293 cells assessed as reduction in [3H]-GABA uptake preincubated for 25 mins followed by [3H]-GABA addition and measured after 4 mins by liquid scintillation counting analysis. Type of assay: cell-based. Conditions: for IC50: read-out: pIC50 (converted).

For another assay, the target named is T1, GABA transporter 2 (Mus musculus, UniProt P31651).
T1 sequence (P31651 whole entry): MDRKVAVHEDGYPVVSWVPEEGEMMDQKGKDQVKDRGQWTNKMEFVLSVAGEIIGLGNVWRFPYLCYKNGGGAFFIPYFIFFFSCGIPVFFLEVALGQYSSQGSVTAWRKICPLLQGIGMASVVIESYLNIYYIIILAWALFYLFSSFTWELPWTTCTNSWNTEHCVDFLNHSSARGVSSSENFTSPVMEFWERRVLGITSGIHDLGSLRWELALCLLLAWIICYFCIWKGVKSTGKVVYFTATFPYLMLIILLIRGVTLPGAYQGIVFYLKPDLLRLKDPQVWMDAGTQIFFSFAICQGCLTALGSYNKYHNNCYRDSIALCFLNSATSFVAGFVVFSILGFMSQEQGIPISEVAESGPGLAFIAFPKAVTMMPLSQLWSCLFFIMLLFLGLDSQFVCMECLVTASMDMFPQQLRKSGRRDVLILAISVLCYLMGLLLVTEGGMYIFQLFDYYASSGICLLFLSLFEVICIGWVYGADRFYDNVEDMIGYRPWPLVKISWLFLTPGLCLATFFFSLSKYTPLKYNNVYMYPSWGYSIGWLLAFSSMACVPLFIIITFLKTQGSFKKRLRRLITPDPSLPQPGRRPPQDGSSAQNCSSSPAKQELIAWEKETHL
In words: Inhibition of mouse GAT2 transfected in HEK293 cells assessed as reduction in [3H]-GABA uptake preincubated for 25 mins followed by [3H]-GABA addition and measured after 10 mins by liquid scintillation counting analysis. Conditions: read-out: pIC50 (converted). The class given is cell-based.

Assay [2] is described as follows: Inhibition of mouse GAT3 transfected in HEK293 cells assessed as reduction in [3H]-GABA uptake preincubated for 25 mins followed by [3H]-GABA addition and measured after 4 mins by liquid scintillation counting analysis. Conditions: for pIC50: hek293; for IC50: HEK293, read-out: pIC50 (converted). The class given is cell-based.
For another assay, the target named is T2, GABA transporter 4 (Mus musculus, UniProt P31650).
T2 sequence (P31650 whole entry): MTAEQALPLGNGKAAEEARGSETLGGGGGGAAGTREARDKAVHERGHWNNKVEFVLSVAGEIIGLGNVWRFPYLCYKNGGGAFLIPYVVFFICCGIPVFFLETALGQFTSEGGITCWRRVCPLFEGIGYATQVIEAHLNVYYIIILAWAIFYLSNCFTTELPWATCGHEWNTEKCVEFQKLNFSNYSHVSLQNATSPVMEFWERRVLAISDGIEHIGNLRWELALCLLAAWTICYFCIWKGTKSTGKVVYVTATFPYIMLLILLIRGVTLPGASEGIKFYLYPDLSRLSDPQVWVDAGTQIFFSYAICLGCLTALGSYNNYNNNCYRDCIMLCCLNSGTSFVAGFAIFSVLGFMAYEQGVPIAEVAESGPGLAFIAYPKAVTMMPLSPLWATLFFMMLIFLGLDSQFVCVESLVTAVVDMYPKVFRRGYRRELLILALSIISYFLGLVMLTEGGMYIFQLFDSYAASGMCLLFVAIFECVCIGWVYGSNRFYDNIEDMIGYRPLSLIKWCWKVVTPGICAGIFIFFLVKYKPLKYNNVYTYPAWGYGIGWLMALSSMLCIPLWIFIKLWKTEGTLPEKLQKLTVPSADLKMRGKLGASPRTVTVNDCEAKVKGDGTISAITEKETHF
In words: Inhibition of mouse GAT4 transfected in HEK293 cells assessed as reduction in [3H]-GABA uptake preincubated for 25 mins followed by [3H]-GABA addition and measured after 4 mins by liquid scintillation counting analysis. Type of assay: cell-based. Conditions: read-out: pIC50 (converted).

Assay [3] deals with Acetylcholinesterase (Electrophorus electricus) (UniProt O42275). Description: Inhibition of electric eel AChE using acetylthiocholine iodide as substrate at 10 uM preincubated for 5 mins followed by substrate addition and measured after 5 mins by DTNB reagent based Ellman's method relative to control. Conditions: time 10.0 min. For orientation: In Ellman's method for cholinesterases, released thiocholine reacts with DTNB.
Acetylcholinesterase (Electrophorus electricus), sequence (O42275 24-633 limits assumed): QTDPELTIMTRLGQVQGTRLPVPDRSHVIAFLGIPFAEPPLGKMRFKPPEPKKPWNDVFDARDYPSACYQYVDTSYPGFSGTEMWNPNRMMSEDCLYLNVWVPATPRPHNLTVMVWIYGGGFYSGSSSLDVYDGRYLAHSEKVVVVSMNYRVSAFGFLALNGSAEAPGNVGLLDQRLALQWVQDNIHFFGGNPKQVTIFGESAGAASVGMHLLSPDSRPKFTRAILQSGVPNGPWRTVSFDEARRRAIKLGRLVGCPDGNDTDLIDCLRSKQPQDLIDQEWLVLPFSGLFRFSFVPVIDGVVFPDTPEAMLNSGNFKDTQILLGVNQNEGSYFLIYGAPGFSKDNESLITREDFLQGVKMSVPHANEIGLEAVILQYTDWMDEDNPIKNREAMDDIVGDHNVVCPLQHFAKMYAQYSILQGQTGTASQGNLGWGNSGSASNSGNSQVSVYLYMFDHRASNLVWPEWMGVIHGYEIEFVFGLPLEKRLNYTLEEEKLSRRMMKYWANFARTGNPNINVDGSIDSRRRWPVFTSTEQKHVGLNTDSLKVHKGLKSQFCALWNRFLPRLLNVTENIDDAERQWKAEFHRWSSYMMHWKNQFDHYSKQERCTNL

In assay [4] the target is Cholinesterase (Equus caballus) (UniProt P81908). In words: Inhibition of equine serum BuChE using butyrylthiocholine iodide as substrate at 10 uM preincubated for 5 mins followed by substrate addition and measured after 5 mins by DTNB reagent based Ellman's method relative to control. Conditions: time 10.0 min.
Cholinesterase (Equus caballus), sequence (P81908 whole entry): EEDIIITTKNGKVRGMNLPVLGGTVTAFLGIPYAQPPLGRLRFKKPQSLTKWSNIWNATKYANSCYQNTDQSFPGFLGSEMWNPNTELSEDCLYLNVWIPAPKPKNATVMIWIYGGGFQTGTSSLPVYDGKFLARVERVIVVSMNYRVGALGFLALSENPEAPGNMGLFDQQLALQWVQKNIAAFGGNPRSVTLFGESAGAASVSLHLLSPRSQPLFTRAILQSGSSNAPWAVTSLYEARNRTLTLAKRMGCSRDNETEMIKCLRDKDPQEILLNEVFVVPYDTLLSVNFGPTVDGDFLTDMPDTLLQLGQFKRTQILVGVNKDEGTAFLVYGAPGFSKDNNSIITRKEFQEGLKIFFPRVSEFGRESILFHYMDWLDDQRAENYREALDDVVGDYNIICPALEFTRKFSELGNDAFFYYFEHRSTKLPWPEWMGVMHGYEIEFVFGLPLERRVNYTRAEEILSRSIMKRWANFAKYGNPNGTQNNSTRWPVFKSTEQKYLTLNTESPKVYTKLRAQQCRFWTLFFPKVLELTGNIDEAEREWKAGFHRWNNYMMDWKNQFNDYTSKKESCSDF
Another assay has as its target Beta-secretase 1 (Homo sapiens, UniProt P56817). Conditions: dose 50.0 µM, time 60.0 min.
The target of another assay is Cholinesterase (Equus caballus, UniProt P81908).
Cholinesterase, sequence (P81908 whole entry): as above

Beta-secretase 1, sequence (P56817 whole entry): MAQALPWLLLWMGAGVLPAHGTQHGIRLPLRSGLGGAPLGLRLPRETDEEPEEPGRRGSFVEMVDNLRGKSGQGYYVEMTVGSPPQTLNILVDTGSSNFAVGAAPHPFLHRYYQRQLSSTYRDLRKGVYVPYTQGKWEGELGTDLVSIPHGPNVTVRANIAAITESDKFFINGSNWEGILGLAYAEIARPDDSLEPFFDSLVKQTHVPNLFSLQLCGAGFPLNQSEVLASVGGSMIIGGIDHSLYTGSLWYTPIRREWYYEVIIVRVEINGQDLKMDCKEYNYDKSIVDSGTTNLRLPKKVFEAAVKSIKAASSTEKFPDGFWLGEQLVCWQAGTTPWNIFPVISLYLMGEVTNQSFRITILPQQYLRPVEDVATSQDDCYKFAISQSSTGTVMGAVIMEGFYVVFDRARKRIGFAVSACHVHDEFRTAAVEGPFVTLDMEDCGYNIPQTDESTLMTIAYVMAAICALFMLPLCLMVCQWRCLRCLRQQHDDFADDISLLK

In the case of `CC(O)CC(C(=O)NCc1ccc(F)cc1)N(C)CC/C=C/c1ccccc1-c1ccccc1` (racemic; form 2), the negative-log IC50 (pIC50) in assay [1] (hek293) came to 4.61; in assay [2] it was 4.87. Moreover, the results for the IC50 at GABA transporter 2 and on GABA transporter 4 were 11.7 µM and 14.5 µM, respectively.

With `CC(=O)NCCC(C(=O)NCc1ccccc1)N(C)CCC=C1c2ccccc2CCc2ccccc21` (centres undefined), the inhibition in assay [3] is less than 10%; in assay [4], 60%; against Beta-secretase 1, 34%.

`CN(CCC=C1c2ccccc2-c2ccccc21)C(CCO)C(=O)NCc1ccccc1Cl` (centres undefined): the inhibition was less than 10% in assay [3] and 59% at Beta-secretase 1. For the same compound, on Cholinesterase, the IC50 came to 1.63 µM.

`Cc1ccc(CNC(=O)C(CO)N(C)CCC=C2c3ccccc3CCc3ccccc32)cc1` (centres undefined): the inhibition in assay [3] was less than 10%; in assay [4] it was 45%; on Beta-secretase 1, 59%.

In the case of `Cc1ccc(CNC(=O)C(CCO)N(C)CCC=C2c3ccccc3-c3ccccc32)cc1` (centres undefined), the inhibition in assay [3] was less than 10%; in assay [4], 52%; against Beta-secretase 1, 55%.

For the compound `CN(CCC=C1c2ccccc2CCc2ccccc21)C(CCO)C(=O)NCc1ccc(F)cc1` (centres undefined), the inhibition is less than 10% in assay [3], 39% in assay [4] and 34% against Beta-secretase 1.

For `CN(CCC=C1c2ccccc2CCc2ccccc21)C(CO)C(=O)NCc1ccc(F)cc1` (centres undefined), the inhibition in assay [3] is less than 10%; in assay [4] it was 32%; on Beta-secretase 1, 48%.

In the case of `CC(=O)NCCC(C(=O)NCc1ccc(Cl)cc1)N(C)CCC=C1c2ccccc2CCc2ccccc21` (centres undefined), the inhibition in assay [3] is less than 10%; in assay [4], 24%; on Beta-secretase 1, 49%.

In the case of `CC(O)CC(C(=O)NCc1ccccc1Cl)N(C)CC/C=C/c1ccccc1-c1ccccc1` (racemic; form 1), the IC50 is 33.9 µM in assay [1], 15.5 µM on GABA transporter 2, 13.8 µM in assay [2] and 38 µM at GABA transporter 4.

On to `CN(CCC=C1c2ccccc2CCc2ccccc21)C(CO)C(=O)NCc1ccccc1` (centres undefined), for which the inhibition in assay [3] is less than 10%; in assay [4], 38%; at Beta-secretase 1 it was 33%.

Take `CN(CCC=C1c2ccccc2CCc2ccccc21)C(CCO)C(=O)NCc1ccccc1` (centres undefined): the inhibition was less than 10% in assay [3], 38% in assay [4] and 19% against Beta-secretase 1.

Turning to `CN(CCC=C1c2ccccc2C=Cc2ccccc21)C(CO)C(=O)NCc1ccccc1` (centres undefined), the inhibition was less than 10% in assay [3] and 29% against Beta-secretase 1. In addition, the IC50 against Cholinesterase was determined as 4.35 µM.

As for `CN(CCC=C1c2ccccc2CCc2ccccc21)C(CCO)C(=O)NCc1ccccc1Cl` (centres undefined), the inhibition in assay [3] came to 11%; in assay [4], 24%; against Beta-secretase 1 it was 44%.

For the compound `CN(CCC=C1c2ccccc2CCc2ccccc21)C(CO)C(=O)NCc1ccc(Cl)cc1` (centres undefined), the inhibition in assay [3] is less than 10%; in assay [4], 36%; on Beta-secretase 1 it was 34%.

For the compound `CC(O)CC(C(=O)NCc1ccccc1)N(C)CC/C=C/c1ccccc1-c1ccccc1` (racemic; form 1), the IC50 in assay [1] is 37.2 µM; at GABA transporter 2, 18.2 µM; in assay [2], 25.1 µM; at GABA transporter 4, 50.1 µM.

`CN(CCC=C1c2ccccc2C=Cc2ccccc21)C(CCO)C(=O)NCc1ccc(Cl)cc1` (centres undefined): the values for the inhibition (in assay [3]; in assay [4]; at Beta-secretase 1) were less than 10%, 21% and 48%, respectively.

Regarding `CC(O)CC(C(=O)NCc1ccc(F)cc1)N(C)CC/C=C/c1ccccc1-c1ccccc1` (racemic; form 1), the IC50 in assay [1] was 24.5 µM; at GABA transporter 2 it was 9.77 µM; in assay [2] it was 8.91 µM; at GABA transporter 4, 19.1 µM.

As to `CN(CCC=C1c2ccccc2C=Cc2ccccc21)C(CO)C(=O)NCc1ccccc1Cl` (centres undefined), the inhibition in assay [3] worked out at 12%; against Beta-secretase 1, 52%. This compound also yielded an IC50 on Cholinesterase of 8.23 µM.

As for `CN(CCC=C1c2ccccc2CCc2ccccc21)C(CCO)C(=O)NCc1ccc(Cl)cc1` (centres undefined), the inhibition in assay [3] is less than 10%; in assay [4], 19%; against Beta-secretase 1, 43%.

As to `CN(CCC=C1c2ccccc2C=Cc2ccccc21)C(CCO)C(=O)NCc1ccccc1` (centres undefined), the inhibition in assay [3] was less than 10%; in assay [4] it was 56%; at Beta-secretase 1, 34%.

`CN(CCC=C1c2ccccc2C=Cc2ccccc21)C(CO)C(=O)NCc1ccc(Cl)cc1` (centres undefined): the values for the inhibition (in assay [3]; in assay [4]; against Beta-secretase 1) were 11%, 40% and 77%, respectively.

Take `CC(=O)NCCC(C(=O)NCc1ccc(F)cc1)N(C)CCC=C1c2ccccc2CCc2ccccc21` (centres undefined): the inhibition in assay [3] is less than 10%; in assay [4], 47%; at Beta-secretase 1, 54%.

On to `CC(=O)NCCC(C(=O)NCc1ccccc1Cl)N(C)CCC=C1c2ccccc2CCc2ccccc21` (centres undefined), for which the inhibition in assay [3] is less than 10%; in assay [4], 41%; on Beta-secretase 1, 44%.

Consider `Cc1ccc(CNC(=O)C(CCO)N(C)CCC=C2c3ccccc3CCc3ccccc32)cc1` (centres undefined), for which the inhibition in assay [3] was less than 10%; in assay [4] it was 36%; against Beta-secretase 1, 41%.

Take `CN(CCC=C1c2ccccc2C=Cc2ccccc21)C(CCO)C(=O)NCc1ccccc1Cl` (centres undefined): the inhibition in assay [3] was less than 10%; in assay [4] it was 32%; against Beta-secretase 1, 48%.

For the compound `CC(=O)NCCC(C(=O)NCc1ccc(C)cc1)N(C)CCC=C1c2ccccc2CCc2ccccc21` (centres undefined), the inhibition in assay [3] is less than 10%; in assay [4] it was 43%; at Beta-secretase 1, 36%.

In the case of `CC(O)CC(C(=O)NCc1ccccc1Cl)N(C)CC/C=C/c1ccccc1-c1ccccc1` (racemic; form 2), the IC50 was 28.8 µM in assay [1], 13.5 µM on GABA transporter 2, 15.1 µM at GABA transporter 4 and 3.67 µM against Cholinesterase. Moreover, the pIC50 in assay [2] is 4.82.

As for `Cc1ccc(CNC(=O)C(CO)N(C)CCC=C2c3ccccc3C=Cc3ccccc32)cc1` (centres undefined), the inhibition in assay [3] is 30%; against Beta-secretase 1 it was 54%. The compound further yielded an IC50 against Cholinesterase of 6.22 µM.

As for `CC(O)CC(C(=O)NCc1ccccc1)N(C)CC/C=C/c1ccccc1-c1ccccc1` (racemic; form 2), the figures for the inhibition (in assay [3]; against Beta-secretase 1) were less than 10% and 4%, respectively.

Consider `CN(CCC=C1c2ccccc2CCc2ccccc21)C(CO)C(=O)NCc1ccccc1Cl` (centres undefined), for which the values for the inhibition (in assay [3]; in assay [4]; against Beta-secretase 1) were less than 10%, 52% and 72%, respectively.

`Cc1ccc(CNC(=O)C(CCO)N(C)CCC=C2c3ccccc3C=Cc3ccccc32)cc1` (centres undefined): the inhibition was less than 10% in assay [3], 35% in assay [4] and 47% at Beta-secretase 1.

Turning to `CN(CCC=C1c2ccccc2C=Cc2ccccc21)C(CO)C(=O)NCc1ccc(F)cc1` (centres undefined), the values for the inhibition (in assay [3]; against Beta-secretase 1) were less than 10% and 30%, respectively. Also, on Cholinesterase, the IC50 was 3.24 µM.

For `CN(CCC=C1c2ccccc2C=Cc2ccccc21)C(CCO)C(=O)NCc1ccc(F)cc1` (centres undefined), the inhibition in assay [3] was less than 10%; in assay [4], 39%; against Beta-secretase 1, 39%.

The term pIC50 denotes the IC50 on a negative log10 scale, so that one unit is a factor of ten. A word on the inhibition: it is the change of the read-out against control, counted positive when it falls. A low value points to little suppression.

Values taken from ChEMBL document CHEMBL5335794, “Discovery of novel multifunctional ligands targeting GABA transporters, butyrylcholinesterase, β-secretase, and amyloid β aggregation as potential treatment of Alzheimer's disease” (Eur J Med Chem, 2023).
